The text below walks through data of patent publication US20240398701A1, “MANUFACTURING METHODS FOR GASTRIC RESIDENCE SYSTEMS” (Lyndra Therapeutics, Inc., priority 2023, published 2024).

A short description of the data set: Time-dependent behaviour in simulated gastric fluid over seven days. It counts as physicochemical. From the text:
In some embodiments, a gastric residence system may include one or more time-dependent disintegrating matrices instead of or in addition to one or more enteric disintegrating matrices. A time-dependent disintegrating matrix may include one or more time-dependent polymers or linkers, that is, polymers that degrade in a time-dependent manner in the gastric environment. […] Thus, a polymer that degrades in a time-dependent manner can be readily prepared by mixing Plastoid B and triacetin; the degradation time of the Plastoid B-triacetin mixture can be extended by increasing the amount of Plastoid B used in the mixture (that is, using less triacetin in the mixture), while the degradation time can be decreased by decreasing the amount of Plastoid B used in the mixture (that is, using more triacetin in the mixture).

Regarding `CC(=O)OCC(COC(C)=O)OC(C)=O` [triacetin], the “release from a polymer formulation” value is listed as “releases from a polymer formulation in a time-dependent manner”.
